Source: patent publication US20230339851A1, “CXCR6 SULFONAMIDE COMPOUNDS” (CHEMOCENTRYX, INC., priority 2022, published 2023)

What follows are compounds tested against T1, human CXCR6 (Homo sapiens, UniProt O00574) (assay: Radioligand Binding Assay (125I-CXCL16 displacement)). Conditions: L1.2 cells stably transfected with human CXCR6 cDNA, 0.1 nM 125I-CXCL16, 4° C., three-hour incubation; read-out: Potency (IC50).
T1 construct: expressed in transfected cells
Summary of the method: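 L1.2 cells stably expressing human CXCR6 incubated 3 h at 4 °C in HBSS/0.1% BSA with 0.1 nM 125I-CXCL16 and graded compound concentrations. Bound radioactivity collected by filtration and counted; IC50 from 3-parameter nonlinear regression.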

T1 sequence (O00574 whole entry): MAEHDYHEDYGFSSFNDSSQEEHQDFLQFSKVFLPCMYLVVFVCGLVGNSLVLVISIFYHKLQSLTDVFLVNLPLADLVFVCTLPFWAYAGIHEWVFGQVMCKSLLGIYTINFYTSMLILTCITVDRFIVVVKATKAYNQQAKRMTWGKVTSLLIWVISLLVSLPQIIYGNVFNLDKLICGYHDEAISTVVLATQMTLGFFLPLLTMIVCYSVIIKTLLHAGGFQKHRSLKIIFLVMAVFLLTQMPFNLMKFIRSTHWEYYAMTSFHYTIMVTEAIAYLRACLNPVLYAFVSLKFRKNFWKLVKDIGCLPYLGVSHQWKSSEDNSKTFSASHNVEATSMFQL

SMILES | IC50 [µM]
COc1cc(NC(=O)[C@@H]2CCOC[C@H]2C)ccc1S(=O)(=O)Nc1cccc(OC(F)(F)F)c1 (racemic) [Example 1.007] | 0.2 to 0.75
CCOc1cc(NC(=O)[C@@H](CO)C(C)C)ccc1S(=O)(=O)Nc1cccc(Cl)c1Cl [Example 1.054] | 0.2 to 0.75
Cc1cc(NC(=O)c2cccc(Cl)c2)ccc1S(=O)(=O)Nc1cccc(C(F)(F)F)c1 [Example 1.299] | 0.2 to 0.75
Cc1cc(NC(=O)c2cnoc2C)ccc1S(=O)(=O)Nc1cccc(C(F)(F)F)c1 [Example 1.255] | 0.2 to 0.75
CCOc1cc(NC(=O)CC(O)CO)ccc1S(=O)(=O)Nc1cccc(OC(F)(F)F)c1 (centres unmarked) [Example 1.387] | 0.75 to 2
CCn1nccc1C(=O)Nc1ccc(S(=O)(=O)Nc2cccc(C(F)(F)F)c2)c(C)c1 [Example 1.519] | 0.2 to 0.75
CCOc1cc(NC(=O)[C@H]2CCCC[C@@H]2OC)ccc1S(=O)(=O)Nc1cccc(OC(F)(F)F)c1 [Example 1.307] | 0.2 to 0.75
COc1cc(NC(=O)c2ccnn2C)ccc1S(=O)(=O)Nc1ccc(C(F)(F)F)cc1 [Example 1.224] | 0.2 to 0.75
CCOc1cc(NC(=O)[C@H]2CC[C@@H](OC)CC2)ccc1S(=O)(=O)Nc1cccc(OC(F)(F)F)c1 [Example 1.412] | 0.75 to 2
CCOc1cc(NC(=O)[C@@H]2COC[C@@H]2O)ccc1S(=O)(=O)Nc1cccc(OC(F)(F)F)c1 (racemic) [Example 1.010] | 0.2 to 0.75
CC(=O)Nc1cc(C)c(S(=O)(=O)Nc2cccc(C(F)(F)F)c2)c(F)c1 [Example 1.451] | 2 to 20
Cc1cc(NC(=O)C2CCCOC2)ccc1S(=O)(=O)Nc1cccc(C(F)(F)F)c1 (centres unmarked) [Example 1.478] | 0.75 to 2
COc1cc(NC(=O)C2CC3C=CC2O3)ccc1S(=O)(=O)Nc1cccc(OC(F)(F)F)c1 (centres unmarked) [Example 1.179] | 0.2 to 0.75
CCOc1cc(NC(=O)C2(COC)CC2)ccc1S(=O)(=O)Nc1cccc(OC(F)(F)F)c1 [Example 1.302] | 0.75 to 2
CCOc1cc(NC(=O)C2CCNC(=O)C2)ccc1S(=O)(=O)Nc1cccc(OC(F)(F)F)c1 (centres unmarked) [Example 1.475] | 2 to 20
CC(C)Oc1cc(NC(=O)c2ccns2)ccc1S(=O)(=O)Nc1cccc(C(F)(F)F)c1 [Example 1.542] | 2 to 20
CCOc1cc(NC(=O)C(COC)C(=O)O)ccc1S(=O)(=O)Nc1cccc(OC(F)(F)F)c1 (centres unmarked) [Example 1.127] | 0.2 to 0.75
Cc1cc(NC(=O)c2cccn2C)ccc1S(=O)(=O)Nc1cccc(C(F)(F)F)c1 [Example 1.486] | 0.75 to 2
Cc1cc(NC(=O)c2ccccn2)ccc1S(=O)(=O)Nc1cccc(C(F)(F)F)c1 [Example 1.098] | 2 to 20
COc1cc(NC(=O)[C@@H]2CCC[C@@H](OC)C2)ccc1S(=O)(=O)Nc1cccc(C(F)(F)F)c1 [Example 1.554] | 2 to 20
CC(=O)Nc1ccc(S(=O)(=O)Nc2cccc(C(F)(F)F)c2)c(Br)c1 [Example 1.130] | 2 to 20
CCOc1cc(NC(=O)C2CCC(=O)N2C)ccc1S(=O)(=O)Nc1cccc(OC(F)(F)F)c1 (centres unmarked) [Example 1.081] | 0.75 to 2
CCOc1cc(NC(=O)[C@@H](NS(C)(=O)=O)C(C)CC)ccc1S(=O)(=O)Nc1cccc(OC(F)(F)F)c1 (some centres unmarked) [Example 1.367] | 2 to 20
CCOc1cc(NC(=O)[C@@H](CO)c2ccccc2)ccc1S(=O)(=O)Nc1ccc(Cl)c(C)c1 [Example 1.258] | 0.2 to 0.75

SMILES | IC50 [µM]
CCc1cc(NC(C)=O)ccc1S(=O)(=O)Nc1cccc(C(F)(F)F)c1 [Example 1.382] | 0.75 to 2
CCOc1cc(NC(=O)C(CO)CC2CCOCC2)ccc1S(=O)(=O)Nc1cccc(OC(F)(F)F)c1 (centres unmarked) [Example 1.309] | 0.2 to 0.75
Cn1nccc1C(=O)Nc1ccc(S(=O)(=O)Nc2cccc(C(F)(F)F)c2)c(F)c1 [Example 1.256] | 2 to 20
Cc1cc(NC(=O)c2ccnn2C)cc(F)c1S(=O)(=O)Nc1cccc(OC(F)(F)F)c1 [Example 1.502] | 0.2 to 0.75
CCOc1cc(NC(=O)[C@@H](O)C(C)C)ccc1S(=O)(=O)Nc1cccc(Cl)c1C(F)(F)F [Example 1.579] | 2 to 20
COc1cc(NC(=O)c2ccccc2)ccc1S(=O)(=O)Nc1cccc(C(F)(F)F)c1 [Example 1.040] | 0.2 to 0.75
CCOc1cc(NC(=O)[C@@H](O)C(C)C)ccc1S(=O)(=O)Nc1ccc(Cl)cc1 [Example 1.398] | 0.2 to 0.75
CCOc1cc(NC(=O)C2CC=CC[C@H]2N)ccc1S(=O)(=O)Nc1cccc(OC(F)(F)F)c1 (mixture of isomers) [Example 1.026] | 0.75 to 2
Cc1cc(NC(=O)c2cccnc2C)ccc1S(=O)(=O)Nc1cccc(C(F)(F)F)c1 [Example 1.306] | 0.75 to 2
Cc1cc(NC(=O)C2CCOCC2)ccc1S(=O)(=O)Nc1cccc(C(F)(F)F)c1 [Example 1.500] | 0.2 to 0.75
Cc1cc(NC(=O)c2ccnn2C)cc(C)c1S(=O)(=O)Nc1cccc(C(F)(F)F)c1 [Example 1.504] | 0.2 to 0.75
COc1cc(NC(=O)c2ccn(C)c(=O)c2)ccc1S(=O)(=O)Nc1cccc(OC(F)(F)F)c1 [Example 1.038] | 0.2 to 0.75
CCOc1cc(NC(=O)[C@H]2CCCC[C@@H]2O)ccc1S(=O)(=O)Nc1cccc(OC(F)(F)F)c1 [Example 1.169] | 0.75 to 2
COc1ccccc1C(=O)Nc1ccc(S(=O)(=O)Nc2cccc(C(F)(F)F)c2)c(OC)c1 [Example 1.294] | 2 to 20
CCOc1cc(NC(=O)C2CCCN(C(C)=O)C2)ccc1S(=O)(=O)Nc1cccc(OC(F)(F)F)c1 (centres unmarked) [Example 1.465] | 2 to 20
CC(=O)Nc1ccc(S(=O)(=O)Nc2cccc(C(F)(F)F)c2)c(F)c1 [Example 1.385] | 2 to 20
COc1cc(NC(=O)c2ccnn2C)ccc1S(=O)(=O)Nc1ccc(Cl)cc1 [Example 1.114] | 0.2 to 0.75
CCOc1cc(NC(=O)CC(O)c2ccnn2C)ccc1S(=O)(=O)Nc1cccc(OC(F)(F)F)c1 (centres unmarked) [Example 1.060] | 0.75 to 2
CCOc1cc(NC(=O)[C@@H](CO)C(C)C)ccc1S(=O)(=O)Nc1cccc(C(C)(C)O)c1 [Example 1.353] | 2 to 20
CC(=O)Nc1cc(C)c(S(=O)(=O)Nc2cccc(OC(F)(F)F)c2)c(F)c1 [Example 1.444] | 2 to 20
Cn1nccc1C(=O)Nc1ccc(S(=O)(=O)Nc2cccc(C(F)(F)F)c2)c(Br)c1 [Example 1.351] | 0.2 to 0.75
CCOc1cc(NC(=O)C2CCC(O)C2)ccc1S(=O)(=O)Nc1cccc(OC(F)(F)F)c1 (centres unmarked) [Example 1.373] | 0.75 to 2
Cc1cc(NC(=O)C(F)(F)F)ccc1S(=O)(=O)Nc1cccc(C(F)(F)F)c1 [Example 1.467] | 2 to 20
CCOc1cc(NC(=O)[C@@H](CO)C(C)C)ccc1S(=O)(=O)Nc1ccc(C(F)(F)F)cc1 [Example 1.558] | 0.2 to 0.75

More lines, now with the values ahead:

IC50 [µM] | SMILES
≤ 0.2 | CCOc1cc(NC(=O)[C@@H](O)C(C)C)ccc1S(=O)(=O)Nc1ccc(Cl)c(C)c1 [Example 1.223]
≤ 0.2 | CCOc1cc(NC(=O)[C@@H](CO)c2ccccc2)ccc1S(=O)(=O)Nc1cccc(OC(F)(F)F)c1 [Example 1.536]
≤ 0.2 | CCOc1cc(NC(=O)[C@@H](NC(=O)C(F)(F)F)C(C)CC)ccc1S(=O)(=O)Nc1cccc(OC(F)(F)F)c1 (some centres unmarked) [Example 1.089]
≤ 0.2 | CCOc1cc(NC(=O)C(C(=O)O)C(C)C)ccc1S(=O)(=O)Nc1cccc(OC(F)(F)F)c1 (centres unmarked) [Example 1.217]
≤ 0.2 | CCOc1cc(NC(=O)C2CC=CC[C@H]2O)ccc1S(=O)(=O)Nc1ccc(C)c(OC(F)(F)F)c1 (some centres unmarked) [Example 1.029]
≤ 0.2 | CCOc1cc(NC(=O)C2CC3C=CC2O3)ccc1S(=O)(=O)Nc1cccc(OC(F)(F)F)c1 (centres unmarked) [Example 1.508]
≤ 0.2 | CCOc1cc(NC(=O)[C@@H](O)C(C)C)ccc1S(=O)(=O)Nc1ccc(F)c(OC(F)(F)F)c1 [Example 1.209]
≤ 0.2 | CCOc1cc(NC(=O)c2ccn(C)c(=O)c2)ccc1S(=O)(=O)Nc1cccc(OC(F)(F)F)c1 [Example 1.110]
≤ 0.2 | CCOc1cc(NC(=O)[C@@H](NC(C)=O)c2ccccc2)ccc1S(=O)(=O)Nc1cccc(OC(F)(F)F)c1 [Example 1.313]
≤ 0.2 | CCOc1cc(NC(=O)C2CC3CCC2O3)ccc1S(=O)(=O)Nc1cccc(OC(F)(F)F)c1 (centres unmarked) [Example 1.061]
≤ 0.2 | CCOc1cc(NC(=O)[C@@H](CO)C2CC2)ccc1S(=O)(=O)Nc1ccc(CC)c(C)c1 [Example 1.135]
≤ 0.2 | CCOc1cc(NC(=O)[C@@H](O)C(C)C)ccc1S(=O)(=O)Nc1cccc(C(C)(F)F)c1 [Example 1.261]
≤ 0.2 | COc1cc(NC(=O)[C@@H](O)c2ccccc2)ccc1S(=O)(=O)Nc1cccc(OC(F)(F)F)c1 [Example 1.129]
≤ 0.2 | CCOc1cc(NC(=O)C(O)c2c(F)cccc2F)ccc1S(=O)(=O)Nc1cccc(OC(F)(F)F)c1 (centres unmarked) [Example 1.511]
≤ 0.2 | CCOc1cc(NC(=O)[C@@H](N)C(C)C)ccc1S(=O)(=O)Nc1cccc(OC(F)(F)F)c1 [Example 1.454]
≤ 0.2 | CCOc1cc(NC(=O)C(CO)C(C)C)ccc1S(=O)(=O)Nc1ccc(Cl)c(OC)c1 (centres unmarked) [Example 1.018]
≤ 0.2 | CC(=O)N[C@H](C(=O)Nc1ccc(S(=O)(=O)Nc2cccc(OC(F)(F)F)c2)c(C)c1)c1ccccc1 [Example 1.481]
≤ 0.2 | COc1cc(NC(=O)c2ccnn2C)ccc1S(=O)(=O)Nc1ccc(C)c(OC(F)(F)F)c1 [Example 1.151]
≤ 0.2 | CCOc1cc(NC(=O)[C@@H](N)c2ccccc2)ccc1S(=O)(=O)Nc1ccc(C)c(OC(F)(F)F)c1 [Example 1.462]
≤ 0.2 | CCOc1cc(NC(=O)C(CC2CC2)C(=O)O)ccc1S(=O)(=O)Nc1cccc(OC(F)(F)F)c1 (centres unmarked) [Example 1.013]
≤ 0.2 | CCOC(=O)[C@H]1CC=CC[C@@H]1C(=O)Nc1ccc(S(=O)(=O)Nc2cccc(OC(F)(F)F)c2)c(OCC)c1 [Example 1.138]
≤ 0.2 | CCOc1cc(NC(=O)[C@@H](O)[C@@H](C)CC)ccc1S(=O)(=O)Nc1ccc(F)c(OC(F)(F)F)c1 [Example 1.259]
≤ 0.2 | CCOc1cc(NC(=O)[C@@H](CO)C2CC2)ccc1S(=O)(=O)Nc1cccc(C(C)C)c1 [Example 1.025]
